According to publication PMC5762908 (Scientific Reports, 2018):
Read-outs that look alike come from different tables or passages of the source.

Experiments:
[1] = test system: BAD KO SV40 MEF (BAD gene knockout immortalized mouse embryonic fibroblast); assay: Cytotoxic activity, alamar blue assay, BAD KO SV40 MEF; assay type: cell-based; conditions: 72 h incubation
[2] = test system: MRC-5 (human lung fibroblast); assay: Cytotoxic activity, alamar blue assay, MRC-5 non-cancer cells; assay type: cell-based
advanced CRC = conditions: cited from earlier work
[3] = test system: WT SV40 MEF (wild-type immortalized mouse embryonic fibroblast); assay: Cytotoxic activity, alamar blue assay, WT SV40 MEF; assay type: cell-based; conditions: 72 h incubation
[4] = test system: PBMC (human peripheral blood mononuclear cells); assay: Cytotoxic activity, alamar blue assay, PBMC non-cancer cells; assay type: cell-based; conditions: 72 h incubation
calf thymus DNA (ctDNA) = assay: DNA intercalation assay, ethidium bromide displacement; assay type: binding; conditions: complex 5, 10 and 20 µM; doxorubicin 10 µM; data not shown
Procedure: DNA intercalation was assessed by examining the ability of the complex to displace ethidium bromide from ctDNA (Sigma-Aldrich Co.)[32]. The DNA intercalation assay was conducted in 96-well plate (100 µL) and contained 15 µg/mL ctDNA, 1.5 µM ethidium bromide and 5, 10 and 20 µM of complex in saline solution. The vehicle (0.1% DMSO) used for diluting the compound tested was used as the negative control. Doxorubicin (10 µM) was used as the positive control. Fluorescence was measured using excitation and emission wavelengths of 320 nm and 600 nm, respectively using the spectraMax Microplate Reader (Molecular Devices).

[5] = Homo sapiens, MRC5, 72 h incubation

Compound	IC50 ([1]; Mus musculus, Fibroblast) [µM]	IC50 [2, 5] [µM]	Response rates (advanced CRC; 5-FU as a monotherapy)	Response rates (advanced CRC; 5-FU combined with irinotecan and oxaliplatin)	IC50 ([3]; Mus musculus, Fibroblast) [µM]	IC50 ([4]; Homo sapiens, PBMC) [µM]	Ethidium bromide fluorescence (displacement from ctDNA) (calf thymus DNA (ctDNA))	IC50 ([2]; 72 h incubation) [µM]	IC50 [4] [µM]	IC50 [1] [µM]	IC50 [3] [µM]
O=c1[nH]cc(F)c(=O)[nH]1 [5-FU, 5-fluorouracil]	7.3	57.9	10–15%	40–50%	1.7	78					
COc1cccc2c1C(=O)c1c(O)c3c(c(O)c1C2=O)C[C@@](O)(C(=O)CO)C[C@@H]3O[C@H]1C[C@H](N)[C@H](O)[C@H](C)O1 [DOX, Doxorubicin]	0.4	1.6			0.03	5.1	reduced the fluorescence intensity of ethidium bromide				
O=C1[O][Pt]2([NH][C@@H]3CCCC[C@H]3[NH]2)[O]C1=O [OXA, oxaliplatin]								1.4	12.4		
[Ru(5-FU)(PPh3)2(bipy)]PF6 [RU/5-FU]							did not decrease the ethidium bromide fluorescence	9.5	5.7	1.8	1.9
